Data as given in patent US5876694A, “Azavesamicols” (priority 1997, dated 1999).

Test system: vesamicol receptor
Assay: Blocking experiment 1: co-injection of (dl)-vesamicol with radiotracer
Format: in vivo, male Wistar rats
Details: 60 min, iv
Experimental: Two separate experiments each utilizing two groups of male Wistar rats (n=3) were performed.
Experiment 1. Animals in Group 1 (control) each received an intravenous injection of the radiotracer (4.7 uCi in 100 uL of 50% aq. EtOH). […] At 60 min post-injection, the animals were sacrificed and the tissues were harvested as outlined above.
Animals in Group 1 received a single i.v. injection of radiotracer.
Animals in Group 2 were administered with a mixture of the radiotracer an
All animals were sacrificed a
60 min postradiotracer injection.

[1] = Group 2: with (dl)vesamicol hydrochloride

Compound: O[C@@H]1CCN(Cc2cccc([125I])c2)C[C@H]1N1CCC(c2ccccc2)CC1 (single isomer, unassigned) [(-)-[^125 I]12h, (+)- and (-)-4-hydroxy-1-(3-[I^125]iodobenzyl)-3-(4-phenyl-piperidinyl)piperidine]
- Blocking study, ratio brain/blood (Group 1: radiotracer alone): 10.44
- Blocking study, ratio heart/blood (Group 1: radiotracer alone): 5.37
- Blocking study, ratio brain/blood [1]: 3.30
- Blocking study, ratio heart/blood [1]: 1.87
